The record followed here is patent US20250163054A1, “SUBSTITUTED BICYCLIC HETEROARYL COMPOUNDS USEFUL AS INHIBITORS OF TLR9” (Bristol-Myers Squibb Company, priority 2022, published 2025).

Type in all cases: cell-based
The target of one assay is T1, human TLR7 (Homo sapiens, UniProt Q9NYK1).
T1 construct: host or cells: HEK-Blue cells (HEK293-derived reporter line)
T1 sequence (Q9NYK1 27-1049): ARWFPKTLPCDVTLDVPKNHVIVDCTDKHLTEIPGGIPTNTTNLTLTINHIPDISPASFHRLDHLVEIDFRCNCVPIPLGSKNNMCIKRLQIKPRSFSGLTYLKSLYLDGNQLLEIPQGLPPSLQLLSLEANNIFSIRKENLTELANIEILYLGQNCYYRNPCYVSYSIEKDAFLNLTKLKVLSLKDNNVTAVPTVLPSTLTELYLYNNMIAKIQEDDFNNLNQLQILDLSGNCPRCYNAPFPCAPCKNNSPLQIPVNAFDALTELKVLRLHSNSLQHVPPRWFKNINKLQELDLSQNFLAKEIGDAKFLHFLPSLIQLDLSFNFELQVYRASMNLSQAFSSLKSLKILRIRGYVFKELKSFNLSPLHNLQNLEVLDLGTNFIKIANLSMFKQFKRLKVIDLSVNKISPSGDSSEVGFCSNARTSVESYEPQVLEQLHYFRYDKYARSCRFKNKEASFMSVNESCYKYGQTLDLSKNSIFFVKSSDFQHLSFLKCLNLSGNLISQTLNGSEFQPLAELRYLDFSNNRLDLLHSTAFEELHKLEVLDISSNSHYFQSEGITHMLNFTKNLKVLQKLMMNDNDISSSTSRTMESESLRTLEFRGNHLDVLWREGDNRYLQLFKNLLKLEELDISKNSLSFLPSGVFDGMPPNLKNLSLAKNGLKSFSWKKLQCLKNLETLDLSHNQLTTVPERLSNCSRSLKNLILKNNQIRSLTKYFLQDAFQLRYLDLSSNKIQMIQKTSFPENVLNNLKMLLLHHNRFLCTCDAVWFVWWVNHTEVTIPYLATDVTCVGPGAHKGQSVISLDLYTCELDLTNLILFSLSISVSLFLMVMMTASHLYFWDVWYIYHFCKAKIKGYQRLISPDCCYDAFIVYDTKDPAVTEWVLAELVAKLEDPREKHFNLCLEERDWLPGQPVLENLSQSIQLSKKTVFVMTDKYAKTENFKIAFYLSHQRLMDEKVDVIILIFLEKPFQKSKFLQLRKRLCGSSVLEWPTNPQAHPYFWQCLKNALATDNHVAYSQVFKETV
The experiment in a line: TLR7/8/9 Inhibition Reporter Assays (TLR7). Particulars: HEK-Blue cells overexpressing human TLR7, SEAP reporter, stimulated with TLR7 ligand gardiquimod. The method in brief: (§1)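 HEK-Blue cells overexpressing human TLR7, TLR8 or TLR9 with NF-κB/AP-1-driven SEAP reporter, pre-treated 60 min with compound ([…]). Stimulated with […] (TLR7), […] (TLR8) or ODN2006 200 nM (TLR9), then 22 h at 37° C; SEAP measured, % inhibition relative to agonist-plus-DMSO and known-inhibitor wells.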
In general terms: A reporter such as luciferase makes a cellular process visible.

Another assay concerns the target T2, human TLR9 (Homo sapiens, UniProt Q9NR96).
T2 construct: host or cells: HEK-Blue cells (HEK293-derived reporter line)
T2 sequence (Q9NR96 26-1032): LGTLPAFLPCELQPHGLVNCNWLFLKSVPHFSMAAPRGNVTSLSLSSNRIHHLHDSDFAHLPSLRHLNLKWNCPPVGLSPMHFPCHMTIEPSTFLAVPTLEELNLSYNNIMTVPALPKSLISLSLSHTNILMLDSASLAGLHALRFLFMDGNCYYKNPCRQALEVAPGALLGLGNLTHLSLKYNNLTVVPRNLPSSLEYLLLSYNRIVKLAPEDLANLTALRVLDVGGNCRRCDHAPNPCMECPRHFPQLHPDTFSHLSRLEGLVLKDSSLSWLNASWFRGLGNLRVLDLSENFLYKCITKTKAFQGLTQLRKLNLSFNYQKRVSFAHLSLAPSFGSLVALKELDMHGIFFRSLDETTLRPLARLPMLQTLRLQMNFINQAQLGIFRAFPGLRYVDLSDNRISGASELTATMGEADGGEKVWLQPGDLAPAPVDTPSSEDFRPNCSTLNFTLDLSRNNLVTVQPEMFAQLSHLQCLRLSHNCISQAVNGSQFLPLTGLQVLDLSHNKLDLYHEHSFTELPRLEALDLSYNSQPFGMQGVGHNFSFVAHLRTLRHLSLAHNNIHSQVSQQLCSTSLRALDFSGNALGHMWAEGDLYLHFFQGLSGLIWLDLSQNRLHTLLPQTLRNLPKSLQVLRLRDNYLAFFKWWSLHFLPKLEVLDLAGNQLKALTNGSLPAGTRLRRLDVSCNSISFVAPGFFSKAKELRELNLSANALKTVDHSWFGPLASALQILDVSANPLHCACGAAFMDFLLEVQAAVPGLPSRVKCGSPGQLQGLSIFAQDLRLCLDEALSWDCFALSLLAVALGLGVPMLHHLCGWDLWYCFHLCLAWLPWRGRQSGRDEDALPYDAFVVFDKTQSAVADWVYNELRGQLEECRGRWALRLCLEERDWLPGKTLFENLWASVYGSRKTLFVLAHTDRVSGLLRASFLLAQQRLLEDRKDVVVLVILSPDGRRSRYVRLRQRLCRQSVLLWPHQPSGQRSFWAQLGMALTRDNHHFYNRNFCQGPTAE
The assay is described as follows: TLR7/8/9 Inhibition Reporter Assays (TLR9). The conditions noted are these: HEK-Blue cells overexpressing human TLR9, SEAP reporter, stimulated with TLR9 ligand ODN2006. An outline of the steps:
as §1

A further assay concerns the target T3, human TLR8 (Homo sapiens, UniProt Q9NR97).
T3 construct: host or cells: HEK-Blue cells (HEK293-derived reporter line)
T3 sequence (Q9NR97 27-1041): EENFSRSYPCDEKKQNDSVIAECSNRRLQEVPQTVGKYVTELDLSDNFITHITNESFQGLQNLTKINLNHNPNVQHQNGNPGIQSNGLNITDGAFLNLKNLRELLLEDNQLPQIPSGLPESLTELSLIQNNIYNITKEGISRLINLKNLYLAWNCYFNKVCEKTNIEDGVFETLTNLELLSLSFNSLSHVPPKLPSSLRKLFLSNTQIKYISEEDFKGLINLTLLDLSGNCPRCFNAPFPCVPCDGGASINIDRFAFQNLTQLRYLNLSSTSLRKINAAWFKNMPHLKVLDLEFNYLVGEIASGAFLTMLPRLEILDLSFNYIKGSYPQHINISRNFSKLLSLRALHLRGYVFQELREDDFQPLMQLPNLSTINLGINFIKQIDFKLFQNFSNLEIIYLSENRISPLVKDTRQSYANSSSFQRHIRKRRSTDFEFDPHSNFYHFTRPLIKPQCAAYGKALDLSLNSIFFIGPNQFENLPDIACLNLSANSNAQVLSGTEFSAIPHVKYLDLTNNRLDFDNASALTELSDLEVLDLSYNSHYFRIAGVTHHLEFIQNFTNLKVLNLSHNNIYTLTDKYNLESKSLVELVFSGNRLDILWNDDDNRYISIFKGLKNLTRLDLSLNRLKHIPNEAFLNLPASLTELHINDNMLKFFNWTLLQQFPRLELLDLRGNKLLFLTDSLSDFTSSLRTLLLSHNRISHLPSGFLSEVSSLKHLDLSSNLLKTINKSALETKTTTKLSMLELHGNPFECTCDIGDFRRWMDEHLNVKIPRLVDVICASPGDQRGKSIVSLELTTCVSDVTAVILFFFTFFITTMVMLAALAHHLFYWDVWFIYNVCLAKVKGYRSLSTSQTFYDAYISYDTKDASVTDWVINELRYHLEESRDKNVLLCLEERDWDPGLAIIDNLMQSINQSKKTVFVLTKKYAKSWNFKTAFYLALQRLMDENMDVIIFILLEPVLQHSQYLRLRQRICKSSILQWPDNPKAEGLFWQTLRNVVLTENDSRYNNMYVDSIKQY
The experiment in a line: TLR7/8/9 Inhibition Reporter Assays (TLR8). The conditions noted are these: HEK-Blue cells overexpressing human TLR8, SEAP reporter, stimulated with TLR8 ligand R848. The method in brief:
as §1

The term IC50 denotes the point on the concentration scale where inhibition reaches its midpoint. Higher therefore signals weaker potency. Take `Cc1cc(-c2nc3c(C)nc(-c4ccc(N5CCN(CC6CC6)CC5)cc4)cc3n2C)cc(C)n1` [Example 15, 6-(4-(4-(cyclopropylmethyl)piperazin-1-yl)phenyl)-2-(2,6-dimethylpyridin-4-yl)-1,4-dimethyl-1H-imidazo[4,5-c]pyridine]: the figures for the IC50 at human TLR7, against human TLR9 and against human TLR8 were 1100 nM, 460 nM and 18000 nM, respectively.

As to `Cc1nc(-c2ccc(N3CCN(CCCN4CCOCC4)CC3)cc2)cc2c1nc(-c1ccc(S(C)(=O)=O)cc1)n2C` [Example 52, 4-(3-(4-(4-(1,4-dimethyl-2-(4-(methylsulfonyl)phenyl)-1H-imidazo[4,5-c]pyridin-6-yl)phenyl)piperazin-1-yl)propyl)morpholine], the IC50 stood at 1700 nM against human TLR7, 28 nM on human TLR9 and 2600 nM against human TLR8.

`COc1ccc(-c2nc3c(C)nc(-c4ccc(N5CCN(CC(C)C)CC5)cc4)cc3n2C)cc1OC` [Example 17, 2-(3,4-dimethoxyphenyl)-6-(4-(4-isobutylpiperazin-1-yl)phenyl)-1,4-dimethyl-1H-imidazo[4,5-c]pyridine]: the IC50 against human TLR7 amounted to 4400 nM; against human TLR9, 460 nM; against human TLR8, 12000 nM.

On to `Cc1nc(-c2ccc(N3CC4(CCN(CC(C)(C)O)CC4)C3)cc2)cc2c1nc(-c1ccc(S(C)(=O)=O)cc1)n2C` [Example 100, 1-(2-(4-(1,4-dimethyl-2-(4-(methylsulfonyl)phenyl)-1H-imidazo[4,5-c]pyridin-6-yl)phenyl)-2,7-diazaspiro[3.5]nonan-7-yl)-2-methylpropan-2-ol], for which the results for the IC50 at human TLR7, on human TLR9 and against human TLR8 were 3300 nM, 650 nM and 2200 nM, respectively.

For the compound `COc1ccc(-c2nc3c(C)nc(-c4ccc(N5CCC6(CC5)CN(CC(C)C)C6)cc4)cc3n2C)cc1OC` [Example 75, 2-(3,4-dimethoxyphenyl)-6-(4-(2-isobutyl-2,7-diazaspiro[3.5]nonan-7-yl)phenyl)-1,4-dimethyl-1H-imidazo[4,5-c]pyridine], the IC50 at human TLR7 amounted to 890 nM; on human TLR9, 97 nM; against human TLR8 it was 28000 nM.

On to `COc1ccc(-c2nc3c(C)nc(-c4ccc(N5CC6(CN(CC(C)(C)O)C6)C5)cc4)cc3n2C)cc1OC` [Example 58, 1-(6-(4-(2-(3,4-dimethoxyphenyl)-1,4-dimethyl-1H-imidazo[4,5-c]pyridin-6-yl)phenyl)-2,6-diazaspiro[3.3]heptan-2-yl)-2-methylpropan-2-ol], for which the IC50 is 1300 nM against human TLR7, 89 nM on human TLR9 and greater than 50000 nM on human TLR8.

In the case of `Cc1nc(-c2ccc(N3CCC(N4CCCC4)CC3)cc2)c(F)c2c1nc(-c1ccc(S(C)(=O)=O)cc1)n2C` [Example 44, 7-fluoro-1,4-dimethyl-2-(4-(methylsulfonyl)phenyl)-6-(4-(4-(pyrrolidin-1-yl)piperidin-1-yl)phenyl)-1H-imidazo[4,5-c]pyridine], the figures for the IC50 against human TLR7, at human TLR9 and on human TLR8 were 7800 nM, 2500 nM and greater than 50000 nM, respectively.
